Where two headings read alike, the source gives them in different places.

What is called LD50 is the dose at which mortality reaches 50%.

Series [1] deals with sickle erythrocytes. To be noted: Lubin et al 1975; cited from earlier work.
The next series relates to NADH oxidase. Briefly: electron transport: NADH oxidase of mitochondrial inner membranes. It counts as biochemical. To be noted: for effect of treatment on NADH oxidase, in words: at comparable levels of amidination. The text has this:
(§1) When compared to bifunctional imidates, monoimidates have major advantages as therapeutic agents for the treatment of sickle cell disease. One important difference between the two classes of reagents is their relative effect on enzyme activity. […] The results as shown, respectively in Table II and FIG. 2. To facilitate a comparison of imidate action, effects were related to extent of amidination as measured by percent amino group decrease rather than the absolute reagent concentration.

For another series, the system named is succinate oxidase. The series is described as follows: electron transport: succinate oxidase of mitochondrial inner membranes. It counts as biochemical. To be noted: for effect of treatment on succinate oxidase, in words: at comparable levels of amidination.
From the text: as §1

The subject of another series is ascorbate-TMPD oxidase. The series is described as follows: electron transport: ascorbate-TMPD oxidase of mitochondrial inner membranes. It counts as biochemical. The conditions noted are these: for effect of treatment on ascorbate-TMPD oxidase, in words: at comparable levels of amidination.
From the text: as §1

The subject of series [2] is inner membrane ATPase (adenosine triphosphatase). The series is described as follows: inner membrane ATPase activity. The series is classed as biochemical. To be noted: at comparable levels of amidination (FIG. 2).
From the text: FIG. 2 is a graph illustating the effect of dimethylsuberimidate (DMS) and ethylacetimidate (EA) on inner membrane ATPase (adenosine triphosphatase) activity. Open symbols represent DMS-treated membranes, and closed symbols represent EA-treated membranes.
as §1
In the experiment designated by the closed circles in FIG. 2, membranes were treated with high concentrations of EA to determine the extent of amidination required for complete inhibition of activity. The concentrations of EA required for complete inhibition of activity are considerably in excess of the amount required to inhibit sickling.

Series [3] concerns sickle erythrocytes. Briefly: in vitro sickling of sickle erythrocytes after amidination. It counts as cell-based, human. Here is the method:
(§2) Cells were washed with Krebs-Henseleit Buffer (pH 7.4) to remove non-erythrocyte blood elements and resuspended in the same medium to a final hematocrit of 20-40%. Erythrocyte suspensions (4% hematocrit) were incubated in KHB (pH 8.5) containing freshly dissolved EA (1-10 mM). After incubation at room temperature (20°-22°) for 30 min, the cells were washed twice with KH buffer (pH 7.4) and resuspended either in the original plasma (40% hematocrit) for analysis of sickling or in other solutions as described below. To amidinate under anoxia the cells were equilibrated with nitrogen in a tonometer until no oxygen could be detected polarographically. Imidates were added in the dry state to anaerobic cell suspensions. Following treatment, the suspensions were diluted 1:1 with 0.1M Tris-acetate--0.15M NaCl buffer (pH 6.0) to quench amidination, and the cells washed as described above.
The cells were deoxygenated with freshly prepared sodium metabisulfite, fixed with 10% formaldehyde, and examined microscopically. Hypoxic conditions: Cell suspensions were deoxygenated by equilibration with 3% oxygen. Five hundred cells were conted to ascertain the extent of sickling.

In the next series the test system is erythrocytes. Briefly: hemolysis following incubation under the conditions of amidination. It counts as cell-based, human. To be noted: after incubation under the conditions of amidination. As to the method:
as §2

The target in series [4] is T1, hemoglobin of normal cells (Homo sapiens, UniProt P68871+P69905).
T1 construct: endogenous in cells; host or cells: normal erythrocytes from healthy volunteers
Briefly: hemoglobin-oxygen affinity (P50), normal cells. The conditions noted are these: 1 mM. The series is classed as cell-based. As to the method:
as §2
(§3) The oxygen affinity of whole blood (P50) was determined in a tonometer as in B. H. Lubin et al, cited above.
(§4) Since oxyhemoglobin and deoxyhemoglobin differ in quaternary structure and since the structural differences may affect the manner in which imidates react with hemoglobin, amidination was carried out in the presence and absence of oxygen and the effect on oxygen affinity was then examined.

Series [5] deals with T2, hemoglobin of sickle cells (Homo sapiens, UniProt P68871+P69905, E7V).
T2 construct: endogenous in cells; host or cells: sickle erythrocytes (Children's Hospital, Oakland, CA)
Briefly: hemoglobin-oxygen affinity (P50), sickle cells. The series is classed as cell-based. The conditions noted are these: 1 mM. As to the method:
as §2, §3, §4

A further series has as its system rats. Briefly: animal survival after exchange of treated blood. The series is classed as in vivo, rat. The conditions noted are these: 30mM in whole blood. As to the method: In experiments conducted to determine the effect of monoimidates on animal survival, rats were treated with ethylacetimidate at levels of 30mM in whole blood under conditions similar to the in vitro studies described above. This level fo treatment is at least 30 times higher than required for prevention of sickling in vitro. At least three-fourths of the blood was treated and exchanged.

A further series is described as follows: in vivo. To be noted: ip, intraperitoneal. The text has this: Each compound was made up in KH buffer (280 Mosm) buffered to pH 7.4 with 5N NaOH. The final volume for each injection was 1 cc in rats in 0.5 cc in mice.
Series [6] relates to sickle erythrocytes. The series is described as follows: net potassium leak which accompanies sickling. The series is classed as cell-based, human.

Turning to `COC(=N)CCCCC(=N)OC` [DMA, dimethyl adipimidate], the “inhibition of sickling in vitro (literature report)” value in the series with sickle erythrocytes [1] is listed as “inhibit sickling in vitro”.
Turning to `COC(=N)CCCCCCC(=N)OC` [DMS, dimethylsuberimidate, reference compound], the figures for the “NADH oxidase activity (% control)” value in the series with NADH oxidase (2 mM) and in the series with NADH oxidase (10 mM) were 58 % control and 10 % control, respectively. Further, in the series with NADH oxidase, the “effect of treatment on NADH oxidase, in words” value is on record as “markedly inhibited”. Besides, the “Succinate oxidase activity (% control)” value in the series with succinate oxidase (2 mM) turned out to be 62 % control; in the series with succinate oxidase (10 mM), 22 % control. In addition, the “effect of treatment on succinate oxidase, in words” value in the series on succinate oxidase is “markedly inhibited”. Also, the “Ascorbate-TMPD oxidase activity (% control)” value with ascorbate-TMPD oxidase (2 mM) was 61 % control; in the series with ascorbate-TMPD oxidase (10 mM), 28 % control. The “effect of treatment on ascorbate-TMPD oxidase, in words” value with ascorbate-TMPD oxidase is recorded as “markedly inhibited”. Moreover, the “effect of treatment on ATPase activity, in words” value in [2] was “markedly inhibited”.
On to `CCOC(C)=N` [EA, ethyl acetimidate], for which the inhibition of sickling result in the series on sickle erythrocytes [3] (2-5 mM imidate, in vitro) is listed as “nearly complete inhibition”; in the series with sickle erythrocytes [3] (low imidate concentrations (1-2mM)), “approximately 80%”. Further, in the series on sickle erythrocytes [3] (Homo sapiens, Erythrocyte, 1 mM imidate, in vitro, read-out: prevention of sickling), the inhibition at 1000 µM fell in the range of 70 to 80%. The “prevention of sickling on renewed deoxygenation of cells amidinated under anoxia” value in the series with sickle erythrocytes [3] (compared with amidination in the presence of oxygen) is recorded as “sickling was prevented to the same degree”. In addition, in the series on sickle erythrocytes [3] (deoxygenation with 3% oxygen or sodium metabisulfite), the “effectiveness under hypoxic and anoxic conditions” value is “effective under both hypoxic and anoxic conditions”. The hemolysis result with erythrocytes is reported as “Negligible hemolysis”. Further, the P50 in series [4] (amidinated deoxygenated) came to 28.0 mm Hg; in series [4] (amidinated oxygenated), 25.0 mm Hg; in series [5] (amidinated deoxygenated) it was 35.0 mm Hg; in series [5] (amidinated oxygenated), 27.0 mm Hg. Also, the entries for the “NADH oxidase activity (% control)” value in the series on NADH oxidase (4 mM) and in the series with NADH oxidase (20 mM) were 78 % control and 56 % control, respectively. Also, in the series with NADH oxidase, the “effect of treatment on NADH oxidase, in words” value is reported as “significantly less sensitive to EA than DMS”. The results for the “Succinate oxidase activity (% control)” value in the series with succinate oxidase (4 mM) and in the series with succinate oxidase (20 mM) were 61 % control and 45 % control, respectively. The “effect of treatment on succinate oxidase, in words” value in the series with succinate oxidase is “significantly less sensitive to EA than DMS”. Moreover, the “Ascorbate-TMPD oxidase activity (% control)” value in the series with ascorbate-TMPD oxidase (4 mM) worked out at 73 % control; with ascorbate-TMPD oxidase (20 mM), 64 % control. In addition, the “effect of treatment on ascorbate-TMPD oxidase, in words” value with ascorbate-TMPD oxidase was “significantly less sensitive to EA than DMS”. In series [2], the “effect of treatment on ATPase activity, in words” value is listed as “significantly less inhibitory”. Further, the “deleterious effects after exchange of treated blood” value with rats (at least three-fourths of the blood treated and exchanged, three experiments) was “no deleterious effects”. Also, in the series with rats (due to the loss of blood during the transfusion), the hematocrits after treatment result is recorded as “slightly reduced”. Also, the median lethal dose (LD50) in the series “in vivo” (mouse, mice, read-out: LD50 (Lethal dose for 50% of the animals)) turned out to be 950 mg/kg; in “in vivo” (rat, rats) it was 900 mg/kg.
Turning to `COC(C)=N` [methylacetimidate, methyl acetimidate], the “prevention of in vitro sickling compared with EA” value in the series on sickle erythrocytes [3] is given as “as effective as EA”. For the same molecule, the “net potassium leak which accompanies sickling” value in the series on sickle erythrocytes [6] was “elimination of the net potassium leak”.
As to `CCCC(=N)OC` [methylbutyrimidate, methyl butyrimidate], the “prevention of in vitro sickling compared with EA” value in the series with sickle erythrocytes [3] was “as effective as EA”.

Source of the values: patent US4048325A, “Low toxicity method of inhibiting sickling of sickle erythrocytes” (The United States of America as represented by the United …, priority 1976, dated 1977).
